Results reported in patent US20100061928A1, “LABELLED ANALOGUES OF HALOBENZAMIDES AS RADIOPHARMACEUTICALS” (Institut National De La Sante et De La Recherche Medicale …, priority 2006, published 2010).
Structures can show the parent of a compound that is named as a salt.

Key:
[1] = system: B16 F0 murine melanoma cells; assay: Colony forming technique: chemotherapeutic and radiotherapeutic (^125I) effects in vitro; type: cell-based; settings: for % of inhibition (Radiotherapeutic effects alone): 125I-labelled, high specific activity; for % of inhibition: radiotherapeutic effects alone
Description: The colony forming technique is involved, that is to say the growth of colonies of clones starting from tumour cells (B16 F0 murine melanoma cells) inoculated at a low concentration. This method makes it possible to visualize the cytotoxic and cytostatic properties of the compounds studied. The study was carried out in three parts:
The experiment is carried out on 6-well plates where 200 cells are inoculated in 2 ml of DMEM medium. After 20 hours, the medium is withdrawn and replaced with 2 ml of medium comprising the labelled compound at the desired concentration. This study is carried out in comparison with control wells comprising DMEM medium alone. […] The plates are incubated for 8 days and then the medium is withdrawn. The wells are rinsed with PBS and methanol is added for 3 minutes. Once attached, the cells are coloured with crystal violet with a contact time of 3 minutes. Subsequently, the colonies comprising more than 50 cells are counted using a dedicated counter. The growth of the treated colonies of cells is quantified in comparison with the controls. The activity of the product is expressed by a percentage of inhibition:
100−[(number of treated colonies)/(number of control colonies)]×100

tumour = assay: Dosimetry with regard to the tumour (MIRD programme, extrapolated to ^131I); settings: for Effective period: extrapolated to 131I labelling; for Biological period: from biodistribution data
murine melanoma (B16 F0) = assay: Cytotoxicity, Hoechst test, B16 F0
Description: The B16 F0, M4Beu and fibroblast lines are cultured in 75 cm^2 dishes comprising 12 ml of Eagle's essential medium with Earle's salts and Glutamax (Gibco-BRL, Paisley, Scotland) supplemented with 10% foetal calf serum, a solution of vitamins at 1× (Gibco), 1 mM sodium pyruvate (Gibco), a solution of nonessential amino acids at 1× (Gibco) and 4 μg/ml of gentamicin (antibiotic).
The cells are maintained at 37° C. in an incubator under an atmosphere comprising 5% CO2.
The cells (5×10^3) in 150 μl of culture medium are inoculated in 96-well plates (Nunclon™, Nunc, Roskilde, Denmark). […] The stock solutions (200×) are prepared with DMSO and are then stored at −20° C. 50 μl of a solution comprising stock solution and culture medium are subsequently added to the various wells (taking into account the different dilutions). Each test is carried out in triplicate.
The amount of cellular DNA is subsequently measured by the Hoechst test. The plates are then defrosted at ambient temperature for 10 minutes. 100 μl of a 0.01% (w/v) solution of SDS (sodium dodecyl sulphate) in sterile distilled water are subsequently added using a microvolume dispenser. The plates (96 well) are incubated with stirring at ambient temperature for 30 minutes and are then frozen at −80° C. for one hour. The plates are subsequently defrosted at ambient temperature for 20 minutes. […] The plates are then incubated for one hour at ambient temperature, with stirring and with the exclusion of light. The fluorescence obtained is measured using a Fluoroskan 96-well at the excitation wavelength at 360 nm and emission wavelength at 460 nm. Under these conditions, the fluorescence is proportional to the cell biomass in each well. The percentage of survival is defined by the fluorescence in each well (treated) with respect to the fluorescence of the control wells (drug-free), the blanks being subtracted (drug-free and cell-free wells).

[2] = system: grafted B16 F0 murine melanoma tumour; assay: Biodistribution of the ^125I-labelled molecules in the melanoma-bearing mouse (autoradiography of whole-body sections); settings: for Concentration of radioactivity, B 16 (tumour), Mean / Concentration of radioactivity, Ic (intestinal contents), Mean / Concentration of radioactivity, Sc (stomach contents), Mean / Concentration of radioactivity, blood (measured in the heart cavity), Mean / Concentration of radioactivity, brain, Mean / Concentration of radioactivity, kidney, Mean / Concentration of radioactivity, liver, Mean / Concentration of radioactivity, lungs, Mean / Concentration of radioactivity, muscle (skeletal muscle), Mean / Concentration of radioactivity, spleen, Mean / Concentration of radioactivity, uvea (pigmented tissues of the eye), Mean: ^125I-labelled compound
Description: The distribution of the radioactivity of the various compounds in the body (tumour and other organs) is quantified using an Ambis 4000 image analyzer on sections of whole animals. […] All the in vivo experimentation is carried out within the context defined by French legislation relating to animal experimentation.
The B16 F0 melanoma cells are provided by the ATCC and cultured in monolayers in culture medium (MEM, Invitrogen) supplemented with 10% foetal calf serum and antibiotics. The cultures are maintained by subculturing after trypsinization. The cells of the first passages are frozen and stored in liquid nitrogen. For the transplanting, the cells in culture at confluence are detached by trypsinization and washed with phosphate buffer (PBS).
The distribution of the radioactivity present in the sections is analyzed using an AMBIS 4000 analyzer (Scanalytics, CSPI, San Diego, Calif.), which is a proportional counter with a multiwire chamber validated and calibrated beforehand for the monitoring of iodine in the mouse. The measurements require acquisition times of 1000 minutes. […] The value of radioactivity per unit of surface area (cpm/mm^2) is converted to concentration (kBq/g) and expressed as percentage of the injected dose/g of tissue (% ID/g).

[3] = Elimination of the molecules: cumulative urinary and faecal excretion 0-72 hours; type: in vivo, mouse; settings: cumulative excretion 0-72 hours

Question: Which results are given for CCN(CC)CCNC(=O)c1cccc2cc3cccc([125I])c3nc12.Cl.Cl [[^125I]-102, [^125I]-N-(2-diethylaminoethyl)-5-iodoacridine-4-carboxamide dihydrochloride]?
Answer: % of inhibition (Radiotherapeutic effects alone) ([1]; 1.39 kBq, 8.625 pM): 11%; % of inhibition (Radiotherapeutic effects alone) ([1]; 2.78 kBq, 17.25 pM): 14.3%; % of inhibition (Radiotherapeutic effects alone) ([1]; 5.55 kBq, 34.5 pM): 40.3%; % of inhibition (Radiotherapeutic effects alone) ([1]; 11.1 kBq, 69 pM): 65.5%; % of inhibition (Radiotherapeutic effects alone) ([1]; 16.7 kBq, 103.5 pM): 79%; % of inhibition (Radiotherapeutic effects alone) ([1]; 22.2 kBq, […]): 96.1%; Cumulative effect (% inhib) (Radiotherapeutic and chemotherapeutic effects) ([1]; cold compound 102 at 6.25 nM with [125I]-102 1.39 kBq): 30%; Cumulative effect (% inhib) (Radiotherapeutic and chemotherapeutic effects) ([1]; cold compound 102 at 6.25 nM with [125I]-102 2.78 kBq): 37.5%; Cumulative effect (% inhib) (Radiotherapeutic and chemotherapeutic effects) ([1]; cold compound 102 at 6.25 nM with [125I]-102 5.55 kBq): 59.5%; Cumulative effect (% inhib) (Radiotherapeutic and chemotherapeutic effects) ([1]; cold compound 102 at 6.25 nM with [125I]-102 11.1 kBq): 76.5%; Cumulative effect (% inhib) (Radiotherapeutic and chemotherapeutic effects) ([1]; cold compound 102 at 6.25 nM with [125I]-102 16.7 kBq): 89%

Question: What does the source list for CCN(CC)CCNC(=O)c1cccc2cc3cccc(I)c3nc12 [compound 102, N-(2-diethylaminoethyl)-5-iodoacridine-4-carboxamide dihydrochloride]?
Answer: Effective period (tumour): 35.4 h; Biological period (tumour): 43.3 hours; cytotoxic activity compared with DACA (in words) (murine melanoma (B16 F0); various cell lines studied (B16 F0, M4Beu, fibroblasts)): greater activity than the parent compound; Biodistribution, Mean, GB ([2]; 1 H): 281.34; Biodistribution, Mean, GB ([2]; 6 H): 281.20; Biodistribution, Mean, muscle ([2]; 1 H): 2.34; Biodistribution, Mean, muscle ([2]; 3 H): 1.34; Biodistribution, Mean, muscle ([2]; 6 H): 1.36

Question: For CCN(CC)CCNC(=O)c1cccc2c(=O)c3cc([125I])ccc3[nH]c12.Cl.Cl [[^125I]-84, [^125I]-N-(2-diethylaminoethyl)-9,10-dihydro-7-iodo-9-oxoacridine-4-carboxamide dihydrochloride], which “Cumulative effect (% inhib)” value ([1]; cold compound 84 at 0.75 μM with labelled [^125I]-84, activity 0) is on record?
Answer: 17.3 % inhib

Question: What about the “Cumulative effect (% inhib)” value ([1]; cold compound 84 at 0.75 μM with labelled [^125I]-84, activity 1.5 kBq) of the same molecule?
Answer: 18.3 % inhib

Question: What about the “Cumulative effect (% inhib)” value ([1]; cold compound 84 at 0.75 μM with labelled [^125I]-84, activity 6 kBq) of the same molecule?
Answer: 22 % inhib

Question: And the “Cumulative effect (% inhib)” value ([1]; cold compound 84 at 0.75 μM with labelled [^125I]-84, activity 12 kBq)?
Answer: 40.3 % inhib

Question: And the “Cumulative effect (% inhib)” value ([1]; cold compound 84 at 0.75 μM with labelled [^125I]-84, activity 24 kBq)?
Answer: 54 % inhib

Question: And the “Cumulative effect (% inhib)” value ([1]; cold compound 84 at 0.75 μM with labelled [^125I]-84, activity 48 kBq)?
Answer: 88 % inhib

Question: And the “% of inhibition” value ([1]; activity 1.5 kBq, concentration 9.31 pM)?
Answer: 4.5%

Question: And the “% of inhibition” value ([1]; activity 6 kBq, concentration 37.23 pM)?
Answer: 12.4%

Question: And the “% of inhibition” value ([1]; activity 12 kBq, concentration 74.5 pM)?
Answer: 29%

Question: What about the “% of inhibition” value ([1]; activity 24 kBq, concentration 148.9 pM) of the same molecule?
Answer: 30%

Question: What about the “% of inhibition” value ([1]; activity 48 kBq, concentration 297.8 pM) of the same molecule?
Answer: 69%

Question: Which IC50 (murine melanoma (B16 F0); read-out: IC50 B16, B16 F0 murine melanoma, 48 hours incubation, Hoechst test) does the source give for COc1cc(NS(C)(=O)=O)ccc1Nc1c2ccccc2nc2ccccc12 [amsacrine, reference compound] here?
Answer: 0.035 µM

Question: Which “Faecal elimination 0-72 hours (Faeces)” value ([3]; faeces, mice in metabolic cages) does the source give for CCN(CC)CCNC(=O)c1nc2ccccn2c1I [compound 16, N-(2-diethylaminoethyl)-3-iodoimidazo[1,2-a]pyridine-2-carboxamide dihydrochloride] here?
Answer: 24.0%

Question: What about the “Urinary and faecal elimination 0-72 hours (Total)” value ([3]; urine + faeces) of the same molecule?
Answer: 76.6%

Question: What about the “Urinary elimination 0-72 hours (Urine)” value ([3]; urine, mice in metabolic cages) of the same molecule?
Answer: 52.6%

Question: And the Effective period (tumour)?
Answer: 7.5 h

Question: What about the Biological period (tumour) of the same molecule?
Answer: 7.8 hours

Question: What about the “Concentration of radioactivity, B 16 (tumour), Mean” value (shortened to “Concentration … (tumour), Mean”) ([2]; 1 H after i.v. administration) of the same molecule?
Answer: 2.96 % ID/g

Question: What about the “Concentration of radioactivity, Ic (intestinal contents), Mean” value (“Concentration of radioactivity, Ic” below) ([2]; 1 H after i.v. administration) of the same molecule?
Answer: 58.60 % ID/g

Question: What about the “Concentration of radioactivity, Sc (stomach contents), Mean” value (from here on “Concentration of radioactivity, Sc”) ([2]; 1 H after i.v. administration) of the same molecule?
Answer: 24.51 % ID/g

Question: And the “Concentration of radioactivity, blood (measured in the heart cavity), Mean” value ([2]; 1 H after i.v. administration)?
Answer: 2.20 % ID/g

Question: What about the “Concentration of radioactivity, brain, Mean” value (shortened to “Concentration … brain, Mean”) ([2]; 1 H after i.v. administration) of the same molecule?
Answer: 0.33 % ID/g

Question: And the “Concentration of radioactivity, kidney, Mean” value (“Concentration … kidney, Mean” for short) ([2]; 1 H after i.v. administration)?
Answer: 7.12 % ID/g

Question: And the “Concentration of radioactivity, liver, Mean” value ([2]; 1 H after i.v. administration)?
Answer: 4.86 % ID/g

Question: And the “Concentration of radioactivity, lungs, Mean” value (“Concentration … lungs, Mean” for short) ([2]; 1 H after i.v. administration)?
Answer: 6.48 % ID/g

Question: What about the “Concentration of radioactivity, muscle (skeletal muscle), Mean” value ([2]; 1 H after i.v. administration) of the same molecule?
Answer: 1.10 % ID/g

Question: What about the “Concentration of radioactivity, spleen, Mean” value ([2]; 1 H after i.v. administration) of the same molecule?
Answer: 8.16 % ID/g

Question: What about the “Concentration of radioactivity, uvea (pigmented tissues of the eye), Mean” value (“Concentration of radioactivity, uvea” below) ([2]; 1 H after i.v. administration) of the same molecule?
Answer: 28.30 % ID/g

Question: What about the “Concentration … (tumour), Mean” value ([2]; 3 H after i.v. administration) of the same molecule?
Answer: 5.40 % ID/g

Question: And the “Concentration of radioactivity, Ic” value ([2]; 3 H after i.v. administration)?
Answer: 52.06 % ID/g

Question: And the “Concentration of radioactivity, Sc” value ([2]; 3 H after i.v. administration)?
Answer: 30.71 % ID/g

Question: And the “Concentration of radioactivity, blood (measured in the heart cavity), Mean” value ([2]; 3 H after i.v. administration)?
Answer: 3.93 % ID/g

Question: What about the “Concentration … brain, Mean” value ([2]; 3 H after i.v. administration) of the same molecule?
Answer: 0.36 % ID/g

Question: What about the “Concentration … kidney, Mean” value ([2]; 3 H after i.v. administration) of the same molecule?
Answer: 5.04 % ID/g

Question: And the “Concentration of radioactivity, liver, Mean” value ([2]; 3 H after i.v. administration)?
Answer: 2.56 % ID/g

Question: And the “Concentration … lungs, Mean” value ([2]; 3 H after i.v. administration)?
Answer: 3.38 % ID/g

Question: What about the “Concentration of radioactivity, muscle (skeletal muscle), Mean” value ([2]; 3 H after i.v. administration) of the same molecule?
Answer: 1.30 % ID/g

Question: What about the “Concentration of radioactivity, spleen, Mean” value ([2]; 3 H after i.v. administration) of the same molecule?
Answer: 12.67 % ID/g

Question: What about the “Concentration of radioactivity, uvea” value ([2]; 3 H after i.v. administration) of the same molecule?
Answer: 16.60 % ID/g

Question: And the “Concentration … (tumour), Mean” value ([2]; 6 H after i.v. administration)?
Answer: 9.87 % ID/g

Question: And the “Concentration of radioactivity, Ic” value ([2]; 6 H after i.v. administration)?
Answer: 26.14 % ID/g

Question: And the “Concentration of radioactivity, Sc” value ([2]; 6 H after i.v. administration)?
Answer: 48.21 % ID/g

Question: What about the “Concentration … brain, Mean” value ([2]; 6 H after i.v. administration) of the same molecule?
Answer: 0.65 % ID/g

Question: What about the “Concentration … kidney, Mean” value ([2]; 6 H after i.v. administration) of the same molecule?
Answer: 4.47 % ID/g

Question: And the “Concentration … lungs, Mean” value ([2]; 6 H after i.v. administration)?
Answer: 4.56 % ID/g

Question: What about the “Concentration of radioactivity, uvea” value ([2]; 6 H after i.v. administration) of the same molecule?
Answer: 22.16 % ID/g

Question: What about the “Concentration … (tumour), Mean” value ([2]; 24 H after i.v. administration) of the same molecule?
Answer: 5.22 % ID/g

Question: And the “Concentration of radioactivity, uvea” value ([2]; 24 H after i.v. administration)?
Answer: 11.17 % ID/g

Question: And the “Concentration of radioactivity, Sc” value ([2]; 72 H after i.v. administration)?
Answer: 3.42 % ID/g

Question: What about the “Concentration of radioactivity, uvea” value ([2]; 72 H after i.v. administration) of the same molecule?
Answer: 2.41 % ID/g
